Results published in patent US7795285B2, “Anti-trypanosomiasis agent” (Fujifilm Corporation, priority 2004, dated 2010).
Where two headings read alike, the source gives them in different places.

How the values were obtained:
Format in all cases: cell-based
[1] = system: Trypanosoma cruzi (Tulahuen C2C4 strain); test: American trypanosome protozoa growth inhibition screening test (CPRG/Nonidet, 96 hours); details: for IC50: Trypanosoma cruzi, Tulahuen C2C4 strain in rat L6 cells, 96 hours culture, read-out: 50% growth inhibiting concentration Trypanosoma cruzi; for Selective toxicity: chemotherapy index, rat L6 cells versus American trypanosome protozoa
Experimental: In the present example, amastigote and trypomastigote infected with rat L6 cells of protozoa of Trypanosoma cruzi (Tulahuen C2C4 strain) were used. As medium used in the test, RPMI 1640 medium containing L6 cells was supplemented so that L-glutamine (200 mM) becomes 1%, fetal bovine serum becomes 10%, which was cultured under CO2 concentration 5%, at 37° C.
The compounds of the present invention to be used in the test and the positive target agent (benznidazole) were dissolved in DMSO to make a test solution of a predetermined concentration. A medium containing 5×10^3 protozoa was added to wells of a 96-well culture plate, and pre-cultured for 48 hours. After replacing the medium, test solution containing drug of a predetermined concentration or a drug-free DMSO was added. Test solutions were taken by duplicates. After culturing the culture plate in an incubator for 96 hours, growth inhibition activity was tested. Test was conducted as follows.
50 μL of CPRG/Nonidet was added to each well, and allowed to rest for 2 to 6 hours. Next, the culture plate was placed on a fluorescent micro-plate reader, and the absorbance was measured at 540 nm. Growth inhibition rate was calculated with the following formula based on the protozoan infection rate which was obtained by calculating trypanosome infection rate of test solution added group and control group, to obtain a 50% growth inhibition concentration (IC50). Growth inhibition rate (%)={1−(b−a)/(c−a)}×100 a: early infection rate b: infection rate when test solution was added c: infection rate of the control
Chemotherapy index used as an index of selective toxicity against American trypanosome protozoa was calculated with the following formula, to determine drug efficacy.

[2] = system: Trypanosoma brucei rhodensiense (STIB 900 strain); test: African trypanosome protozoa growth inhibition screening test (Alamar Blue, 72 hours); details: for IC50: Trypanosoma brucei, read-out: 50% growth inhibiting concentration Trypanosoma brucei rhod.; for Selective toxicity: chemotherapy index, rat L6 cells versus African trypanosome protozoa
Experimental: In the present example, protozoa of Trypanosoma brucei rhodensiense (STIB 900 strain), a trypamastigote living in blood stream, was used. The medium used in the experiment was a MEM medium which was sterilized with a filter and supplemented with 25 mM N-2-hydroxyethylpiperazine-2-ethansulfonic acid (HEPES), 1 g/L glucose, 1% MEM non-essential amino acid, 0.2 mM 2-mercaptoethanol, 2 mM sodium pyruvate, 0.1 mM hypoxanthine, and 15% heat-treated horse serum. The protozoa was cultured in an atmosphere of CO2 concentration 5%, at a temperature of 37° C.
The compounds of the present invention to be used in the present test and the positive target drug (melarsoprol) were dissolved in DMSO to make a test solution of a predetermined concentration. A medium containing 8×10^3 protozoa, and a test solution containing a drug of a predetermined concentration or a drug-free DMSO were added to wells of a 96-well culture plate, and subsequently, medium was added so that the amount in each well becomes 100 μL. Test solutions were taken by duplicates. After culturing the culture plate for 72 hours in an incubator, growth inhibition activity was tested. Test was conducted as follows.
10 μL of Alamar Blue aqueous solution was added to each well, and the resultant was further cultured for 2 hours. Next, the culture plate was placed on a fluorescent micro-plate reader (Spectramax Gemeni XS; US Molecular Device), radiated at an excited wavelength of 536 nm. Fluorescent intensity was measured at 588 nm, to calculate the trypanosome protozoa infected rate of the test solution added-group, and of the control group. From the protozoan infection rate obtained in the above, growth inhibition rate was calculated with the following formula, to obtain a 50% growth inhibition concentration (IC50). Growth inhibition rate (%)={1−(b−a)/(c−a)}×100 a: early infection rate b: infection rate when test solution was added c: infection rate of the control
Chemotherapy index used as an index of selective toxicity against African trypanosome protozoa was calculated with the following formula, to determine drug efficacy.

[3] = Growth inhibition test of rat L6 cells (Alamar Blue, 72 hours); details: 72 hours culture, Table 1, read-out: 50% growth inhibiting concentration Cytotoxicity L6
Experimental: (§1) Rat derived-L6 cells (rat skeletal myoblast cell) were used. As medium, RPMI1640 medium was supplemented so that L-glutamin (200 mM) is 1%, and fetal bovine serum 10%, and the medium was cultured under CO2 concentration 5%, at 37° C. The compounds of the present invention and the target drugs to be used in the test were dissolved in DMSO, to make a test solution of a predetermined concentration. Pre-culture was conducted and medium containing cells which have entered the logarithmic growth phase was taken to wells of a 96-well culture plate. Then, a test solution containing drug of a predetermined concentration or a drug-free DMSO was added. Test solutions were taken by duplicates. Culture plate was cultured for 72 hours in an incubator, to test the growth inhibition activity. Test was conducted as follows.
(§2) 10 μL of Alamar Blue aqueous solution was added to each well, and the resultant was further cultured for 2 hours. Next, the culture plate was placed on a fluorescent micro-plate reader (Spectramax Gemeni XS; US Molecular Device), radiated at an excited wavelength of 536 nm. Fluorescent intensity was measured at 588 nm, and residual rate of L6 cells of the test solution added group, and that of the control was calculated. From the cell residual rate obtained in the above, growth inhibition rate to L6 cells was calculated, to obtain a 50% growth inhibition concentration (IC50). Growth inhibition rate (%)={(C−A)/(B−A)}×100 A: primary cell count B: cell count of control 3 days after C: cell count of wells added with a sample, 3 days after […]

[4] = system: Rat derived-L6 cells (rat skeletal myoblast cell); test: as above; details: 72 hours culture, Table 2, read-out: 50% growth inhibiting concentration Cytotoxicity L6
Experimental: as §1, §2

[5] = STIB900, STIB 900 strain, bloodstream form, 72 hours culture
[6] = L6 cells (rat skeletal myoblasts)

Row | SMILES | IC50 [1] [µM] | Selective toxicity [1] | IC50 [2, 5] [µM] | Selective toxicity [2] | IC50 at 72 h [3, 6] [µM] | IC50 [4] [µM] | IC50 ([2]; STIB900, 72 h) [µM] | IC50 at 72 h [3] [µM]
1 | CCn1c(=O)/c(=c2\s/c(=C3/Sc4ccccc4N3C)c(=O)n2CC)s/c1=C\c1sc2ccccc2[n+]1C [C-1] | 14 | >10 | 0.009 | >15600 | > 140 | > 140 |  | 
2 | CCn1c(=O)c(=C2C=CN(C)C=C2)s/c1=C\c1sc2c3ccccc3ccc2[n+]1CC [A-1] | 48 | 2.8 | 0.76 | 176 | 134 |  |  | 
3 | O=C(Cn1ccnc1[N+](=O)[O-])NCc1ccccc1 [benznidazole, reference compound] | 0.87 |  |  |  |  |  |  | 
4 | CCn1c(=O)/c(=C2\Sc3ccccc3N2C)s/c1=C\c1cccc[n+]1CCOCCOCCOC [B-5] | 29 | 4.3 | 0.37 | 338 | 125 |  |  | 
5 | CCn1c(=O)/c(=C2\Oc3ccc4ccccc4c3N2C)s/c1=C\c1scc(C)[n+]1C [B-9] | 0.22 | 65 | 0.024 | 592 | 14.2 |  |  | 
6 | Nc1nc(N)nc(Nc2ccc([As]3SCC(CO)S3)cc2)n1 (stereo not shown) [melarsoprol, reference compound] |  |  |  | 1300 |  |  | 0.006 | 7.8
7 | CCn1c(=O)/c(=C2\C=CN(C)c3ccccc32)s/c1=C\c1oc2ccccc2[n+]1CC [A-2] | 0.53 | 10 | 0.012 | 533 | 6.4 |  |  | 
8 | CCn1c(=O)/c(=C2\Oc3c(ccc4ccccc34)N2C)s/c1=C\C1=[N+](CC)CCS1 [B-10] | 0.35 | 53 | 0.035 | 529 | 18.5 |  |  | 
9 | CCn1c(=O)/c(=C2\SCCN2C)s/c1=C\c1sc2ccc3ccccc3c2[n+]1CC [B-1] | 40 | 4.8 | 0.095 | 2030 | 193 |  |  | 
10 | CCn1c(=O)/c(=C2\Sc3ccccc3N2C)s/c1=C\c1cccc[n+]1CCOCCOCCO [B-6] |  |  | 0.94 | 66 | 61.9 |  |  | 
